Laboratory results: the supplement of paper PMC10307832

Columns and labels:
Assay in all cases: relative viability (nuclei count vs DMSO), 5 days (fraction); higher = more cells survive
[1] = compound: NC(=O)c1ccc(N(C(N)=O)c2c(F)cccc2F)nc1-c1ccc(F)cc1F [VX-702] + CC(=O)c1c(C)c2cnc(Nc3ccc(N4CCNCC4)cn3)nc2n(C2CCCC2)c1=O [Palbociclib] (partner 0.5 µM)
Procedure, shortened: (§1)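 Lung cancer cell lines, seeded in 1536-well plates, were treated the following day by pin tool with a single drug or with five library-drug doses (not always all listed) in √10 steps on top of a fixed anchor-drug dose. Cells were fixed and nuclei stained in one step after 5 days, and nuclei were counted. Relative viability is the nuclei count for treated wells divided by that for vehicle wells, reported as medians of duplicate plates.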

[2] = compound: CC(C)(C)c1nc(-c2cccc(NS(=O)(=O)c3c(F)cccc3F)c2F)c(-c2ccnc(N)n2)s1 [Dabrafenib] + COc1cccc2cc(-c3nc([C@H]4CC[C@H](C(=O)O)CC4)n4ncnc(N)c34)[nH]c12 [OSI-027] (partner 0.5 µM)
Procedure, shortened: as §1

[3] = compound: NC(=O)c1ccc(N(C(N)=O)c2c(F)cccc2F)nc1-c1ccc(F)cc1F [VX-702] + O=C(c1cc(Cc2n[nH]c(=O)c3ccccc23)ccc1F)N1CCN(C(=O)C2CC2)CC1 [Olaparib] (partner 8 µM)
Procedure, shortened: as §1

[4] = compound: NC(=O)c1ccc(N(C(N)=O)c2c(F)cccc2F)nc1-c1ccc(F)cc1F [VX-702] + Nc1ncn([C@H]2C[C@H](O)[C@@H](CO)O2)c(=O)n1 [Decitabine] (partner 2 µM)
Procedure, shortened: as §1

[5] = compound: CC(C)(C)c1nc(-c2cccc(NS(=O)(=O)c3c(F)cccc3F)c2F)c(-c2ccnc(N)n2)s1 [Dabrafenib] + CC(=O)Nc1cccc(-n2c(=O)n(C3CC3)c(=O)c3c(Nc4ccc(I)cc4F)n(C)c(=O)c(C)c32)c1 [Trametinib] (partner 0.02 µM)
Procedure, shortened: as §1

For SW 900, the relative viability ([1]; first compound 0.02 µM) was 0.577, the relative viability ([1]; first compound 0.2 µM) was 0.566 and the relative viability ([1]; first compound 0.6325 µM) was 0.575. It also gave a relative viability ([1]; first compound 2 µM) of 0.539, a relative viability ([2]; first compound 0.009487 µM) of 0.619 and a relative viability ([2]; first compound 0.03 µM) of 0.466. It also gave a relative viability ([2]; first compound 0.3 µM) of 0.679, a relative viability ([3]; first compound 0.02 µM) of 0.772 and a relative viability ([3]; first compound 0.2 µM) of 0.878. It also gave a relative viability ([3]; first compound 0.6325 µM) of 0.887, a relative viability ([3]; first compound 2 µM) of 0.893 and a relative viability ([4]; first compound 0.02 µM) of 0.47. For the same cell line, the relative viability ([4]; first compound 0.2 µM) was 0.375, the relative viability ([4]; first compound 0.6325 µM) was 0.393 and the relative viability ([4]; first compound 2 µM) was 0.425. It also gave a relative viability ([5]; first compound 0.009487 µM) of 0.671, a relative viability ([5]; first compound 0.09487 µM) of 1.04 and a relative viability ([5]; first compound 0.3 µM) of 0.93.
